Experiment [1] deals with T1, 5-hydroxytryptamine receptor 6 (Homo sapiens, UniProt P50406). Put plainly: Displacement of [3H]LSD binding to cloned human 5-hydroxytryptamine 6 receptor expressed in HEK cells. Type of experiment: cell-based, HEK293. (In a radioligand displacement assay an active substance lowers the binding of a labelled ligand.)
A short description of experiment [2]: Concentration to stimulate the cAMP production in BHK cells. Type of experiment: functional, cell-based. The following applies: Homo sapiens. In general terms: Cyclic AMP is a second messenger, typically raised through Gs and lowered through Gi signalling.
Experiment [3] addresses T1, 5-hydroxytryptamine receptor 6. Put plainly: Intrinsic activity (IA) at the 5-HT6 receptor determined by measuring their cAMP production in BHK cells and compared to the effect elicited by 5-HT. Format: functional, cell-based. Particulars: Mesocricetus auratus.
Experiment [4] deals with T2, 5-hydroxytryptamine receptor 1A (Rattus norvegicus, UniProt P19327).
T2 sequence (P19327 whole entry): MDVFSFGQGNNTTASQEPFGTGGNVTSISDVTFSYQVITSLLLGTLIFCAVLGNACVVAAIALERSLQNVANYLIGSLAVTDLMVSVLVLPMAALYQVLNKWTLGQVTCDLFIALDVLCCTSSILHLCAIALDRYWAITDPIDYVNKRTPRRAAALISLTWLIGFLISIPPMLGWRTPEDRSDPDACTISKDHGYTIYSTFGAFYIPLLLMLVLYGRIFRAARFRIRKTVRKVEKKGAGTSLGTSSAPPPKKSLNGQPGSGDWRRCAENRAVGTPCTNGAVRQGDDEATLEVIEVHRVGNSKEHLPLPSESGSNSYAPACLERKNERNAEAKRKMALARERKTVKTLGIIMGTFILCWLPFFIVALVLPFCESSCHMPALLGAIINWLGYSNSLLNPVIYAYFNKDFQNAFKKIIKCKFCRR
Put plainly: Inhibitory activity against 5-hydroxytryptamine 1A receptor in rat.

The target in experiment [5] is 5-hydroxytryptamine receptor 1B (Rattus norvegicus, UniProt P28564). Put plainly: Inhibitory activity against 5-hydroxytryptamine 1B receptor in rat.
Chain of 5-hydroxytryptamine receptor 1B (P28564 whole entry): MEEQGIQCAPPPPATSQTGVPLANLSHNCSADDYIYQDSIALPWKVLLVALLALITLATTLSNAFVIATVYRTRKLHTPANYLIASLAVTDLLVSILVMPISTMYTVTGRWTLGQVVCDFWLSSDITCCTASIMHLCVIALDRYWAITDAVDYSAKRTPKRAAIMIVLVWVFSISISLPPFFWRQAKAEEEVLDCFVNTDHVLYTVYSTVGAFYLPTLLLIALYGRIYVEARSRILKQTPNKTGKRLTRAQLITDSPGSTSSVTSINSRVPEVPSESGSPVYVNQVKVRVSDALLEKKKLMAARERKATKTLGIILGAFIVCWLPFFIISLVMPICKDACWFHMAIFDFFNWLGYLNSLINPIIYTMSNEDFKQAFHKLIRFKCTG
Experiment [6] has as its target T1, 5-hydroxytryptamine receptor 6. Put plainly: Inhibitory activity against 5-hydroxytryptamine 6 receptor in human.
For experiment [7], the target named is 5-hydroxytryptamine receptor 7 (Homo sapiens, UniProt P34969). Put plainly: Inhibitory activity against 5-hydroxytryptamine 7 receptor in human.
Chain of 5-hydroxytryptamine receptor 7 (P34969 whole entry): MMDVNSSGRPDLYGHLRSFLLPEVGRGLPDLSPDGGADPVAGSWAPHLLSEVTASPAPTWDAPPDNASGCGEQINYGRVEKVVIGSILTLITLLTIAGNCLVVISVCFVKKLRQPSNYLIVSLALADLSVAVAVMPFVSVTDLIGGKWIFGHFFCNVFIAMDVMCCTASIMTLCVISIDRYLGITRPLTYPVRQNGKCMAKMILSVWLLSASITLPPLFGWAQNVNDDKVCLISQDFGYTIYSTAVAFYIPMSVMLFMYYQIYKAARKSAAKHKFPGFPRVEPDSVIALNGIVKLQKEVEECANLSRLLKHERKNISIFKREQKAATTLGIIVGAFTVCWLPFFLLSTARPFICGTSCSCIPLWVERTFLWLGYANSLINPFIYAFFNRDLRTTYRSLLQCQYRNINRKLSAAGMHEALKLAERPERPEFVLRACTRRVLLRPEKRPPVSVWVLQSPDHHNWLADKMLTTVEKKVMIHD
Experiment [8] concerns the target 5-hydroxytryptamine receptor 2A (Homo sapiens, UniProt P28223). Put plainly: Inhibitory activity against 5-hydroxytryptamine 2A receptor in human.
Experiment [9] concerns the target T3, 5-hydroxytryptamine receptor 2C (Homo sapiens, UniProt P28335).
T3 sequence (P28335 whole entry): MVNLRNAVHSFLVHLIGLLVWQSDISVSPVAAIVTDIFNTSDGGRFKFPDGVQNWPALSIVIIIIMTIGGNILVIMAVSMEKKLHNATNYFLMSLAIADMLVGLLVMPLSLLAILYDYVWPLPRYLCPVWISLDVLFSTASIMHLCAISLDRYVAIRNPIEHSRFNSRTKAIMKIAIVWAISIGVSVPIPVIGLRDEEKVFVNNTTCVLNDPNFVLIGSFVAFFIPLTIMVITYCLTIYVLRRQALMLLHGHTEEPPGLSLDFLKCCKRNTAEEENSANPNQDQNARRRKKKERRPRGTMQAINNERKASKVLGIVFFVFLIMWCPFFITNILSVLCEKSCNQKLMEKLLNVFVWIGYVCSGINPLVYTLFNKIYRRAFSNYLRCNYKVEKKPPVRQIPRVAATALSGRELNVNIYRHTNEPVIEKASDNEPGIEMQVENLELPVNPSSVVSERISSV
Put plainly: Inhibitory activity against 5-hydroxytryptamine 2C receptor in human.

Experiment [10] concerns the target 5-hydroxytryptamine receptor 4 (Cavia porcellus, UniProt O70528). Put plainly: Inhibitory activity against 5-hydroxytryptamine 4 receptor in guinea pig.
Experiment [11] deals with 5-hydroxytryptamine receptor 3A (Mus musculus) (UniProt P23979). Put plainly: Inhibitory activity against 5-hydroxytryptamine 3 receptor expressed in NG 108 cells.
Chain of 5-hydroxytryptamine receptor 3A (Mus musculus) (P23979 whole entry, looked up): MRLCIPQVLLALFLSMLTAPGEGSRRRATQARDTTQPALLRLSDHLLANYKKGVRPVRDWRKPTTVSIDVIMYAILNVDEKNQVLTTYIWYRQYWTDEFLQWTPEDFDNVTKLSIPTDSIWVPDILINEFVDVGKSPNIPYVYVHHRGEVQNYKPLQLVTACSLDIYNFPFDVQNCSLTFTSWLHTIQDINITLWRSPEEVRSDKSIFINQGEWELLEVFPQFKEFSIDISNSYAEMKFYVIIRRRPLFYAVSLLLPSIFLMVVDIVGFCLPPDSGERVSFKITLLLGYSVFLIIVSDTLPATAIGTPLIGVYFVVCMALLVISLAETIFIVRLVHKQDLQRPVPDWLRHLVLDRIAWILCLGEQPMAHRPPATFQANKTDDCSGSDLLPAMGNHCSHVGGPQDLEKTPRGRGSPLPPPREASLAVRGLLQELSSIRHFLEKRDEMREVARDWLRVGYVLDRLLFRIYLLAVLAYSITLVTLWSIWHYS
The target of experiment [12] is T1, 5-hydroxytryptamine receptor 6. Put plainly: Displacement of [3H]LSD binding to cloned h5-HT6 receptors stably expressed in HEK cells. Format: cell-based, HEK293.
Experiment [13] shares this target. Put plainly: Displacement of [3H]LSD binding to cloned human 5-hydroxytryptamine 6 receptor stably expressed in HEK cells. Type of experiment: cell-based, HEK293.

The source of these data is ChEMBL document CHEMBL1141036, “2-Alkyl-3-(1,2,3,6-tetrahydropyridin-4-yl)-1H-indoles as novel 5-HT6 receptor agonists” (Bioorg Med Chem Lett, 2005).

Chain of 5-hydroxytryptamine receptor 2A (P28223 whole entry): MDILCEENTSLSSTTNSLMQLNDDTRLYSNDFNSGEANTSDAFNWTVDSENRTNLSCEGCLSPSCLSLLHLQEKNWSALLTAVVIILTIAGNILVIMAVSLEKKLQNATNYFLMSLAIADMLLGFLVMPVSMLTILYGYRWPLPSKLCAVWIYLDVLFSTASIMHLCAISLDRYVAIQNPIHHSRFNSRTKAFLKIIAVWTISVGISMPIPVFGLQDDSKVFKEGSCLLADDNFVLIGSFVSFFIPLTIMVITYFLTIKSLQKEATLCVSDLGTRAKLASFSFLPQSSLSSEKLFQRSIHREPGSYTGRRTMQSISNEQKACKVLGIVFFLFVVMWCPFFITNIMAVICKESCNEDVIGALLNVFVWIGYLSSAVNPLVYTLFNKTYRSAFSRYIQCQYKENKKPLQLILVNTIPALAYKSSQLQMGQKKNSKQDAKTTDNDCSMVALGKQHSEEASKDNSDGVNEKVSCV
T1 sequence (P50406 whole entry): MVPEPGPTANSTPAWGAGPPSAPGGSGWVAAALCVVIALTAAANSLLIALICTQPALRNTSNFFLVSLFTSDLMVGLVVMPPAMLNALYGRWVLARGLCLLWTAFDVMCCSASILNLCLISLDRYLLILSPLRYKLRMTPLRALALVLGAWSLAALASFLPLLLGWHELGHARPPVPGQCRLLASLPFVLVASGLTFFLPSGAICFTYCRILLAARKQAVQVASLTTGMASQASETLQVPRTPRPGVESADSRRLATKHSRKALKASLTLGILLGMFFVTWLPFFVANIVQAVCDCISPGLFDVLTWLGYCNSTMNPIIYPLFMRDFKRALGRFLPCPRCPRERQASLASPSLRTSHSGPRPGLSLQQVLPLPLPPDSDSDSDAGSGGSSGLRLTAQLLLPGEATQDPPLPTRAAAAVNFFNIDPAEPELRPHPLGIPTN
Chain of 5-hydroxytryptamine receptor 4 (O70528 whole entry): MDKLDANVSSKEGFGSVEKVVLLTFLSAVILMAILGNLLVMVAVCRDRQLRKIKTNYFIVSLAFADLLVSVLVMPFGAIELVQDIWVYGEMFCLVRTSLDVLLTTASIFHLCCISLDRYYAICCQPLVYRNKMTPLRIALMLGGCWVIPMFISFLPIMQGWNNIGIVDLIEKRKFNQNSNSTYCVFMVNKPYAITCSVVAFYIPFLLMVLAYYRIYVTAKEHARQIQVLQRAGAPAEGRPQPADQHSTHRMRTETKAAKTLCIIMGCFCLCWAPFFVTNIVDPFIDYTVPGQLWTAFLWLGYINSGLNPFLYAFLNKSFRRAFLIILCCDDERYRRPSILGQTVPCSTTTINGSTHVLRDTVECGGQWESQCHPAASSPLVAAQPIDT

In general, IC50 refers to the concentration needed to halve the response being measured. Read a low IC50 as greater potency. In turn, `CCCCN1CC=C(c2c(C)[nH]c3ccc(Cl)cc23)CC1` registered an IC50 in [1] of 50 nM.
As for `CCN1CC=C(c2c(C)[nH]c3ccc(Cl)cc23)CC1`, in experiment [1], the half-inhibitory concentration (IC50) turned out to be 30 nM. This IC50 is about 1.7-fold lower than that of the compound before.
In turn, `C1=C(c2c(-c3ccccc3)[nH]c3ccccc23)CCNC1` had an IC50 in experiment [1] of 2 nM. Against the preceding compound, the IC50 is about 15-fold lower.
One may read the EC50 as the concentration at which the effect is half-maximal. High values mean a less potent agent, low ones a more potent agent. In experiment [1], `Cc1[nH]c2ccc(Cl)cc2c1C1=CC2CCC(C1)N2C` (stereo not given) had an IC50 of 40 nM. Also, in [2], the EC50 turned out to be 10000 nM. The same compound displayed an IA in [3] of 75%.
In [1], `CCc1[nH]c2ccc(Cl)cc2c1C1=CCNCC1` registered an IC50 of 30 nM.
For `Cc1[nH]c2ccc(Cl)cc2c1CCN(C)C`, the half-maximal inhibitory concentration (IC50) in experiment [1] turned out to be 40 nM. For the same compound, the EC50 in [2] stood at 16 nM. The same compound returned an IA in [3] of 53%.
Turning to `Cc1[nH]c2ccc(Cl)cc2c1C1=CCN(C)CC1`, the IC50 in experiment [1] was determined as 10 nM. Also, a half-maximal response in experiment [2] (EC50) required 2.9 nM. Further, the IA in [3] came to 152%.
In the case of `COc1ccc2[nH]c(C)c(C3=CCNCC3)c2c1`, the IC50 in [1] was 80 nM; in [4] it was 430 nM; in experiment [5], 310 nM; in experiment [6] it was 80 nM; in experiment [7], 9800 nM; in experiment [8], greater than 1000 nM. Also, the IC50 in [9] was greater than 1000 nM; in experiment [10], 9800 nM; in experiment [11], greater than 1000 nM. In experiment [2], this compound gave an EC50 of 5.8 nM. In addition, the IA in experiment [3] was 100%.
As for `CCCc1[nH]c2ccc(Cl)cc2c1C1=CCNCC1`, the IC50 in experiment [1] came out at 40 nM. That is a double-digit nanomolar value.
For the compound `Cc1[nH]c2ccc(Cl)cc2c1C1=CCN(Cc2ccccc2)CC1`, in [1], the IC50 amounted to 600 nM.
Compound `CC(C)c1[nH]c2ccc(Cl)cc2c1C1=CCNCC1` came in with a half-maximal inhibitory concentration (IC50) in experiment [1] of 100 nM.
Regarding `CCc1[nH]c2ccc(OC)cc2c1C1=CCNCC1`, in experiment [12], the IC50 was 90 nM. In addition, in experiment [2], the midpoint of the response, the EC50, lay at 7.9 nM. This compound also registered an IA in experiment [3] of 100%.
`COc1ccc2[nH]cc(C3=CCNCC3)c2c1` [RU-24969] registered an IC50 in experiment [1] of 79 nM. Moreover, in experiment [2], a half-maximal response (EC50) required 200 nM. The IA in experiment [3] turned out to be 55%.
Take `CCCN1CC=C(c2c(C)[nH]c3ccc(Cl)cc23)CC1`: in [1], the 50% inhibitory concentration (IC50) was found to be 60 nM.
Turning to `Cc1[nH]c2ccc(Cl)cc2c1C1=CCNCC1`, the IC50 was 660 nM in experiment [4]; 180 nM in experiment [5]; 3000 nM in experiment [7]; 240 nM in experiment [8]; 450 nM in [9]; 620 nM in experiment [10]. Moreover, in experiment [11], the IC50 worked out at 34 nM. Besides, a half-maximal effect in experiment [2] (EC50) was put at 1 nM. In [3], this compound gave an IA of 92%.
In experiment [12], `CCc1[nH]c2ccc(OC)cc2c1C1CCNCC1` returned an IC50 of 300 nM.
Compound `CCc1[nH]c2ccc(Cl)cc2c1C1=CCN(CC)CC1` showed an IC50 in experiment [1] of 70 nM.
`CCc1[nH]c2ccc(OC)cc2c1CCN(C)C`: the IC50 in experiment [13] is 85 nM; in experiment [4], greater than 1000 nM; in [5], greater than 1000 nM; in [6] it was 85 nM; in experiment [7] it was 1500 nM; in experiment [8] it was 620 nM. For the same compound, the IC50 in experiment [10] is 44 nM; in [11], greater than 1000 nM. The compound also gave an EC50 in experiment [2] of 710 nM. This compound also returned an IA in [3] of 113%.
